Square brackets hold non-standard residues; d marks the D form. Peptide text beside a SMILES is read from it. * marks the point of attachment. Sta = CC(C)C[C@H](N)[C@@H](O)CC(=O)O; Isovaleryl = CC(C)CC(=O)*

The nature of test [1]: dot-blot ^65Zn^2+ binding to synthetic peptides (putative zinc-binding domain of APP). Particulars: for ability to bind ^65Zn^2+: 16 μg peptide dot-blotted. On the procedure: 16 μg of the synthesized peptide […], representing residues 181-214 of APP695 (or residues 181-200), or 16 μg of control peptide, was dissolved in 200 μl of blocking buffer (50 mM Tris-HCl, 1 mM MnCl2 10 mM β-mercaptoethanol, 20% methanol, pH 7.4) and dot-blotted onto PVDF (Immobilon-P, Millipore, Befored, Mass.) which had been pre-wetted with methanol. The blot was then incubated for 30 mins at 20° C. with 100,000 CPM of ^65Zn^2+ in blocking buffer, in the presence or absence of various concentrations of competing unlabeled Zn^2+ or other divalent cations. After incubation the dot-blot was washed three times with 200 μl of blocking buffer without MnCl2, the dot was excised and placed in 10 ml of scintillant and assayed by β-counting.

For another test, the system named is APP-degrading protease. In words: Assay of APP-degrading protease (Zn^2+-enhanced degradation of plasma 130 kDa APP). In kind it is biochemical, human.
For test [2], the system named is human brain full-length APP. Nature of the test: ^125I-APP binding to heparin-Sepharose. The settings on record: for effect on profile of ^125I-APP elution from heparin-Sepharose: Co^2+ at 75 μM. Here is the method:
100 kDa human brian full-length APP was iodinated by the Chloramine-T method. Iodinated APP (^125I-APP) was then separated from labelling reagents by Sephacryl G25 chromatography.
The column was then washed with 6 ml buffer 1 and the APP eluted with aliquots of high-NaCl buffers.

Test [3] relates to human brain 130/110 kDa APP. In words: ^65Zn binding to human brain 130/110 kDa APP (time course, competition, Scatchard). Particulars: for ^65Zn label competed off APP (of Bmax): unlabelled metal ion at 20 μM; for shift of competition curve relative to the Zn^2+ competition curve: competition for ^65Zn binding. An excerpt:
FIG. 4 is a graphical representation showing a time course analysis of ^65Zn binding to human brain 130/110 kDa APP. Amyloid protein precursor (APP) was purified according to the method in Moir et al. (1992). The preparation of purified 130 and 110 kDa APP was derived from human brain membrane extracts and contained the full-length precursor with carboxyl terminus intact but lacked the 17 residue signal peptide. The 130 and 110 kDa proteins were apparent in equal ratios on silver staining following polyacrylamide gel electrophoresis and were the only bands visible. The identity of these two proteins was confirmed by Western blots with monoclonal antibody 22C11 (which recognises an amino terminal epitope on APP), and by amino terminal sequencing. The protein concentration of the APP preparation was determined by amino acid analysis. Aliquots of APP (90 ng, =1.1 pmole, assuming the average amino acid formula weight of APP is =80 kDa) were incubated at 20° C. for the times indicated. Incubations (50 μl) were performed in 150 mM NaCl, 50 mM Tris-Hcl, pH 7.4 in the presence of 10^6 cpm of ^65Zn (175 nM). The incubation solution was then applied to a 1.1 ml bed volume Sephadex G25 (Pharmacia, Uppsala, Sweden) column pre-equilibrated with 150 mM NaCl, 50 mM Tris-HCl, pH 7.4 and allowed to settle before being desalted with 645 μl of the Equilibration buffer. […] The desalted protein was collected directly into counting tubes containing 10 ml aqueous counting scintillant. Less than two minutes was required to complete the desalting. The amount of ^65Zn bound to desalted APP was determined by counting the collected sample in a beta-counter set to the broadest channel. Counting was determined to be 51% efficient. The values shown are means±SD of n≧3 readings.
FIG. 5 is a graphical representation showing a competition analysis of ^65Zn binding to human brain 130/110 kDa APP. Aliquots of APP were incubated for 30 minutes with ^65Zn as in FIG. 4. The binding of the labelled Zn^2+ to APP was subjected to competition with unlabelled Zn^2+ in the form of the chloride salt. Data shown indicate the competition curves generated at pH 6.4 and 7.4. The binding of Zn^2+ to APP deteriorated at the lower pH (=45% of Bmax, pH 7.4). The values are means±SEM of n≧3 readings. The curves illustrated are typical of three experiments.
FIG. 6 is a graphical representation depicting a Scatchard analysis of ^65Zn binding to human brain 130/110 kDa APP.
Binding analysis was performed as follows: Aliquots of APP (90 ng, =1.1 pmole, assuming the average amino acid formula mass of APP is =80 kDa) were incubated at 20° C. Incubations (50 μl) were performed in 150 mM NaCl, 50 mM Tris-HCl, pH 7.4 in the presence of 10^6 CPM of ^65Zn (175 nM). The incubation solution was then applied to a 1.1 ml bed volume Sephadex G25 (Pharmacia, Uppsala, Sweden) column pre-equilibrated with 150 mM NaCl, 50 mM Tris-HCl, pH 7.4 and allowed to settle before being desalted with 645 μl of the equilibration buffer. […] The deslated protein was collected directly into counting tubes containing 10 ml aqueous counting scintillant (ACSII, Amersham). Less than two minutes was required to complete the desalting. The amount of ^65Zn bound to desalted APP was determined by counting the collected sample in a beta-counter set to the broadest channel. Counting was determined to be 51% efficient. The binding of the labelled Zn^2+ to APP was subjected to competition with unlabelled Zn^2+ and other metal chloride salts.

The next test relates to PC12 cells. In words: Effect of extracellular zinc on cultured PC12 cells (APP by Western blot). The settings on record: 48 hr. In kind it is cell-based. Here is the method:
10^6 PC12 cells were plated for 24 hr in the presence of Dulbecco's modified Eagle's medium (DMEM, N2) supplemented with 8% fetal calf serum (FCS). The medium was then removed and replaced with DMEM±2 to 50 μM ZnCl2 or another salt, and no FCS. Cells and media were harvested 48 hr later and aliquots of media, cell cytosol and membrane (following lysis and ultracentrifugation) were assayed for APP by Western blotting with mAb 22C11.
A general note: Immunoblotting shows a protein as a band on a membrane.

Setting [4] is: young adult control preparation, two hours at 37° C., 20 μM ZnCl2.

Turning to “residues 181-200 of APP: synthetic peptide representing about residues 181-200 of APP (SADAEEDDSDVWWGGADTDY; UniProt P05067 198-217, looked up, fragment)”, the “ability to bind ^65Zn^2+” value in test [1] was “bind zinc in a specific and saturable manner”.

With “residues 422-433: peptide representing another region of the APP molecule (VESLEQEAANER; UniProt P05067 439-450, looked up, fragment)”, in test [1], the “ability to bind ^65Zn^2+” value is listed as “unable to bind Zn^2+”.

Consider `CCN1C(=O)C=CC1=O` [N-ethyl maleimide, N-ethylmaleimide], for which the “influence on Zn^2+-enhanced APP proteolysis” value (from here on “influence”) with APP-degrading protease (setting [4]) is “Neither Al3Cl, the cysteine-protease inhibitor N-ethyl maleimide, nor the acid-protease inhibitor pepstatin A influenced the reaction”.

Take renin: the “ability to bind ^65Zn^2+” value in test [1] was “unable to bind Zn^2+”.

As to `[Co+2]` [Co^2+, reference compound], the “effect on profile of ^125I-APP elution from heparin-Sepharose” value (from here on “effect on profile of ^125I-APP elution”) in test [2] is “increased the recovery of ^125I-APP in the 100-500 and 500-2000 mM NaCl fractions”. Further, in test [3], the “^65Zn label competed off APP (of Bmax)” value amounted to 70%.

aprotinin: the “influence” value with APP-degrading protease (setting [4]) was “completely inhibited”.

In the case of `CC(C)CC(=O)N[C@H](C(=O)N[C@H](C(=O)N[C@@H](CC(C)C)[C@@H](O)CC(=O)N[C@@H](C)C(=O)N[C@@H](CC(C)C)[C@@H](O)CC(=O)O)C(C)C)C(C)C` [pepstatin A] (Isovaleryl-VV[Sta]A[Sta]-OH), the “influence” value in the test on APP-degrading protease ([…]) is listed as “Neither Al3Cl, the cysteine-protease inhibitor N-ethyl maleimide, nor the acid-protease inhibitor pepstatin A influenced the reaction”.

For the molecule `[Cu+2]` [Cu^2+, reference compound], the “^65Zn label competed off APP (of Bmax)” value in test [3] came to 60%.

In the case of `[Cl][Cu]` [cuprous chloride, reference compound], the “effect on APP released into the media compared with zinc” value (“effect … compared with zinc” for short) with PC12 cells was “far smaller stimulatory effects”.

Consider `[Cl][Al]([Cl])[Cl]` [Al3Cl, reference compound], for which the “effect … compared with zinc” value in the test on PC12 cells is on record as “far smaller stimulatory effects”. Further, in the test on APP-degrading protease (setting [4]), the “influence” value is given as “Neither Al3Cl, the cysteine-protease inhibitor N-ethyl maleimide, nor the acid-protease inhibitor pepstatin A influenced the reaction”.

Consider `O=C(O)CN(CCN(CC(=O)O)CC(=O)O)CC(=O)O` [EDTA, ethylene diamine tetra acetic acid], for which the “influence” value in the test on APP-degrading protease (setting [4]) is “completely inhibited”.

Turning to `[Cl-].[Cl-].[Mg+2]` [Mg^2+, reference compound], the “effect on profile of ^125I-APP elution” value in test [2] was “did not alter the profile of ^125I-APP elution”. For the same molecule, in test [3], the “shift of competition curve relative to the Zn^2+ competition curve” value is “shifted greater than two log units to the right”.

With `[Cl][Al]([Cl])[Cl]` [Al^3+], in test [2], the “increase in ^125I-APP recovery in the 500-2000 mM NaCl fraction” value was “approximately 4.5 fold” and the “effect on profile of ^125I-APP elution” value is “decreased the recovery of ^125I-APP except in the 500-2000 mM NaCl fraction”. Further, in test [3], the “^65Zn label competed off APP (of Bmax)” value is 60%.

Regarding Insulin B chain: positive control, the “ability to bind ^65Zn^2+” value in test [1] is “bound ^65Zn^2+”.

Regarding `[Cl][Fe][Cl]` [FeCl2, reference compound], in the test on PC12 cells, the “effect … compared with zinc” value was “had a similar effect”.

In the case of “GVEFVCCPLAEESDNVDSADAEEDDSDVWWGGAD [residues 181-214 of APP]”, the “ability to bind ^65Zn^2+” value in test [1] was “able to bind Zn^2+ in a saturable and specific manner”.

With `[Ca+2].[Cl-].[Cl-]` [Ca^2+, reference compound], the “effect on profile of ^125I-APP elution” value in test [2] was “did not alter the profile of ^125I-APP elution”. Besides, in test [3], the “shift of competition curve relative to the Zn^2+ competition curve” value is “shifted greater than two log units to the right”.

With “residues 581-601: peptide representing another region of the APP molecule (TETKTTVELLPVNGEFSLDDL; UniProt P05067 598-618, looked up, fragment)”, the “ability to bind ^65Zn^2+” value in test [1] is listed as “unable to bind Zn^2+”.

For the molecule “carboxyamidomethylated 181-214 peptide: the 181-214 peptide where the cysteines had been modified by carboxyamidomethylation”, the “amount of ^65Zn^2+ binding relative to same quantity of 181-214 peptide” value in test [1] is “approximately 15%”.

Take Insulin A chain: control peptide: the “ability to bind ^65Zn^2+” value in test [1] is “unable to bind Zn^2+”.

In the case of “residues 189-220 of APP695: synthetic peptide lacking the cysteine residues at positions 186/187 (LAEESDNVDSADAEEDDSDVWWGGADTDYADG; APP695; UniProt P05067 189-220, looked up, fragment)”, in test [1], the “amount of ^65Zn^2+ binding relative to same quantity of 181-214 peptide” value is “approximately 15%”.

Regarding “residues 645-655: peptide representing another region of the APP molecule (KTEEISEVKMD; UniProt P05067 662-672, looked up, fragment)”, in test [1], the “ability to bind ^65Zn^2+” value was “unable to bind Zn^2+”.

B1: α1-antichymotrypsin (protein, UniProt P01011 24-423, looked up)
Alpha-1-antichymotrypsin: HPNSPLDEENLTQENQDRGTHVDLGLASANVDFAFSLYKQLVLKAPDKNVIFSPLSISTALAFLSLGAHNTTLTEILKGLKFNLTETSEAEIHQSFQHLLRTLNQSSDELQLSMGNAMFVKEQLSLLDRFTEDAKRLYGSEAFATDFQDSAAAKKLINDYVKNGTRGKITDLIKDLDSQTMMVLVNYIFFKAKWEMPFDPQDTHQSRFYLSKKKWVMVPMMSLHHLTIPYFRDEELSCTVVELKYTGNASALFILPDQDKMEEVEAMLLPETLKRWRDSLEFREIGELYLPKFSISRDYNLNDILLQLGIEEAFTSKADLSGITGARNLAVSQVVHKAVLDVFEEGTEASAATAVKITLLSALVETRTIVRFNRPFLMIIVPTDTQNIFFMSKVTNPKQA
Take B1: the “influence” value in the test on APP-degrading protease (setting [4]) was “incompletely inhibited”.

B2: soya bean trypsin inhibitor (protein, UniProt P01070 25-205, looked up)
Trypsin inhibitor A: DFVLDNEGNPLENGGTYYILSDITAFGGIRAAPTGNERCPLTVVQSRNELDKGIGTIISSPYRIRFIAEGHPLSLKFDSFAVIMLCVGIPTEWSVVEDLPEGPAVKIGENKDAMDGWFRLERVSDDEFNNYKLVFCPQQAEDDKCGDIGISIDHDDGTRRLVVSKNKPLVVQFQKLDKESL
With B2, the “influence” value in the test on APP-degrading protease (setting [4]) was “completely inhibited”.

For the origin of these results see patent publication US20040265847A1, “Method for treating Alzheimer's disease” (priority 1991, published 2004).
